From patent US4383992A, “Water-soluble steroid compounds” (priority 1982, dated 1983)

Test: Dissolution of steroid with alpha-cyclodextrin in aqueous suspension
Assay type: physicochemical
Conditions: 120 mg alpha-cyclodextrin added to 5 ml aqueous suspension, room temperature, agitated for several minutes
Method: 120 mg of alpha-cyclodextrin was added to 5 ml of an aqueous suspension of dexamethasone at room temperature.

## C[C@@H]1C[C@H]2[C@@H]3CCC4=CC(=O)C=C[C@]4(C)[C@@]3(F)[C@@H](O)C[C@]2(C)[C@@]1(O)C(=O)CO [dexamethasone, 9-Fluoro-11β,17,21-trihydroxy-16α-methylpregna-1,4-diene-3,20-dione]
  dissolution of steroid with alpha-cyclodextrin: did not dissolve and remained in suspension
